Measurements taken from patent US12428360B2, “Abating unwanted emulsion polymerization during extractive distillation of conjugated diene monomers” (ECOLAB USA INC., priority 2022, dated 2025).

Test: Isoprene polymerization test at 95° C. in heptane (heptane phase, turbidity method)
Procedure: The commercial isoprene was passed through an alumina column to remove stabilizer 4-tert-butylcatechol. A 100 mL jar was charged with 0.2 g active polymerization inhibitor, 40 mL heptane, 40 mL DMF, and a stir bar. The above mixture was stirred at room temperature for 30 minutes and settled for 10 minutes.
Heptane phase: A 100 mL jar was charged with 5.0 mL top layer of previous settled two layers' mixture, 1 mL AIBN (0.0004 g/mL) solution, isoprene 50 g. Hexane was added to make a total weight of 100 g solution. About 13 ml of the above mixture was added to 12 pressure tubes with a stir bar and heated to 95° C. After 30 minutes, and every 30 minutes thereafter, two tubes were retrieved from the block and the polymerization reaction was quenched by cooling in an ice bath. The cooled polymer solutions were immediately diluted with toluene. The soluble polymer in the liquid was determined by turbidity method. Results can be seen in FIG. 2. The data used to generate the trend lines in FIG. 2 can be seen in Table 2.

Structure (SMILES): CCC(C)Nc1ccc(NC(C)CC)cc1 (stereo not shown) [PDA, di-sec-butyl-4,4′-phenylenediamine]
- polymerization growth in Heptane phase (polyisoprene) (Time 0, AIBN initiator): 0 w/w %
- polymerization growth in Heptane phase (polyisoprene) (Time 30 (minutes per method), AIBN initiator): 0.10% w/w %
- polymerization growth in Heptane phase (polyisoprene) (Time 60 (minutes per method), AIBN initiator): 0.24% w/w %
- polymerization growth in Heptane phase (polyisoprene) (Time 90 (minutes per method), AIBN initiator): 0.45% w/w %
- polymerization growth in Heptane phase (polyisoprene) (Time 120 (minutes per method), AIBN initiator): 0.83% w/w %
- polymerization growth in Heptane phase (polyisoprene) (Time 180 (minutes per method), AIBN initiator): 1.05% w/w %
- polymerization growth in Heptane phase (polyisoprene) (Time 240 (minutes per method), AIBN initiator): 1.20% w/w %
